In patent US9974721B2, “Cosmetic composition for lightening skin and hair” (Symrise AG, priority 2013, dated 2018):
Several values for one entry are separate records, joined by “and”; a condition that tells them apart may be missing. Equal entries are not always repeated.

Tests used:
[1] = system: B16V mouse melanoma cells; experiment: Depigmentation effect on melanoma cell cultures (inhibition of pigmentation); assay type: cell-based; conditions: for IC50: Mus musculus, B16V cells, 0.3 mM tyrosine + 10 nM α-MSH, 96 h, absorption at 400 nm
Procedure: (§1) B16V mouse melanoma cells are disseminated in a 96-well micro-titre plate in a concentration of 7.5×10^3 cells/well. After cultivation for 24 h at 37° C. and 5% CO2 in RPMI medium, enriched with 10% foetal calf serum, various concentrations of the test substances and 0.3 mM tyrosine and 10 nM α-MSH (α-melanocyte stimulating hormone) are added and incubated for a further 96 h. The maximum concentration of the test substances used corresponds to 0.1 times the value of the IC20 value of the cytotoxicity assay. Only tyrosine and α-MSH are added to the controls. After incubation, sodium hydroxide solution (final concentrations: 1 M) is added to the culture medium and the absorption (A) is measured after 3 h at 400 nm.
(§2) The inhibition of pigmentation in the presence of the test compounds was calculated using the following equation: Inhibition of pigmentation (%)=100−[(Atest compound/Acontrol)×100] wherein Atest compound=absorption of the wells with test substance and with cells Acontrol=absorption of the wells without test substance, but with cells
From the inhibition of pigmentation (%) in a series of dilutions of test compounds, the IC50 for each test compound is calculated. This is the concentration of a test compound at which pigmentation is inhibited by 50%.

[2] = system: B16V mouse melanoma cells; experiment: Synergistic in vitro melanin inhibition (procedure of Example 1, Kull synergy index); assay type: cell-based; conditions: experiments 1 and 2, mixture 75% Larixol / 25% SymWhite 377
Procedure: as §1, §2
From the inhibition of pigmentation (%) in a series of dilutions of test compounds, the IC50 for each test compound is calculated. […]
The Synergy Index (SI)^1 is calculated according to Kull's equation as follows: ^1 The calculation of the synergy index (SI-value) was carried out on the basis of following literature: D. C. […]

[3] = system: Human skin; experiment: Depigmentation effect on ex vivo skin (melanin granules, Fontana-Masson, image analysis); assay type: cell-based; conditions: 0.1 wt.% in O/W emulsion, topical, 6 days
Procedure: Human skin, originating from plastic surgery, was cut into 4×4×3 mm pieces (length×width×height) and placed in culture at the air-liquid interface on a sterilized cotton pad soaked with 5 ml of customized DMEM (Dulbecco's Modified Eagle Medium). Assays were started 24 h after sample acclimatization at 37° C., 5% CO2. O/W emulsions (as described in more detail below) without (=control) and with the test compounds, respectively, were applied topically and incubated for 6 days. Histological sections were prepared and melanin granules stained by Fontana-Masson technique. The granules were quantified by image analysis. The results are compiled in Tables 3.1 and 3.2.
Phases A and B are heated to 70° C. separately. Pemulen TR1 as well as Ultrez-21 are dispersed in phase B when heated to 70° C. Phase B/C is added to phase A by mixing with an Ultra Turrax, followed by emulsifying. Phase D is slowly added to phase A/B/C using a paddle mixer and a pH 5.5-6 is adjusted. The formulation is cooled down while mixing with a paddle mixer. Phase E is added to the mixture of phase A-D.

[4] = Incorporation into commonly used cosmetic formulations / crystallisation; assay type: physicochemical; conditions: for incorporation into commonly used cosmetic formulations: own experiments
Source text: The analogues compound manool was already described as skin lightening active (JP 2006 137705 (Pola) and JP 06072855 (Pola)).

[5] = target: plasminogen activator inhibitor-1 (PAI-1) (Homo sapiens, UniProt P05121); conditions: US 2010 0137194; cited from earlier work
Chain of plasminogen activator inhibitor-1 (PAI-1) (P05121 24-402, species assumed): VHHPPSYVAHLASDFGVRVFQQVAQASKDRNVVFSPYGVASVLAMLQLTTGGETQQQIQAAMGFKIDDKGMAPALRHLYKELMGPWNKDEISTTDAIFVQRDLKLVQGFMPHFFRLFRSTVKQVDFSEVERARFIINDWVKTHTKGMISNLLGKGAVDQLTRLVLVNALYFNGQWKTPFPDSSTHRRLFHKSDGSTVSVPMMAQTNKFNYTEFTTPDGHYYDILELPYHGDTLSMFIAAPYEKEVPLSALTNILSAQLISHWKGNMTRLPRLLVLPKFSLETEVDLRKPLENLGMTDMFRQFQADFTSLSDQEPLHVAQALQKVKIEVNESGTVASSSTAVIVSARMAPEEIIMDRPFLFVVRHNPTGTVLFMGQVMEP

[6] = target: T1, transient receptor potential cation channel-6 (TRPC6) (Homo sapiens, UniProt Q9Y210); conditions: WO 2013 021038 A1; cited from earlier work
T1 sequence (Q9Y210 1-931): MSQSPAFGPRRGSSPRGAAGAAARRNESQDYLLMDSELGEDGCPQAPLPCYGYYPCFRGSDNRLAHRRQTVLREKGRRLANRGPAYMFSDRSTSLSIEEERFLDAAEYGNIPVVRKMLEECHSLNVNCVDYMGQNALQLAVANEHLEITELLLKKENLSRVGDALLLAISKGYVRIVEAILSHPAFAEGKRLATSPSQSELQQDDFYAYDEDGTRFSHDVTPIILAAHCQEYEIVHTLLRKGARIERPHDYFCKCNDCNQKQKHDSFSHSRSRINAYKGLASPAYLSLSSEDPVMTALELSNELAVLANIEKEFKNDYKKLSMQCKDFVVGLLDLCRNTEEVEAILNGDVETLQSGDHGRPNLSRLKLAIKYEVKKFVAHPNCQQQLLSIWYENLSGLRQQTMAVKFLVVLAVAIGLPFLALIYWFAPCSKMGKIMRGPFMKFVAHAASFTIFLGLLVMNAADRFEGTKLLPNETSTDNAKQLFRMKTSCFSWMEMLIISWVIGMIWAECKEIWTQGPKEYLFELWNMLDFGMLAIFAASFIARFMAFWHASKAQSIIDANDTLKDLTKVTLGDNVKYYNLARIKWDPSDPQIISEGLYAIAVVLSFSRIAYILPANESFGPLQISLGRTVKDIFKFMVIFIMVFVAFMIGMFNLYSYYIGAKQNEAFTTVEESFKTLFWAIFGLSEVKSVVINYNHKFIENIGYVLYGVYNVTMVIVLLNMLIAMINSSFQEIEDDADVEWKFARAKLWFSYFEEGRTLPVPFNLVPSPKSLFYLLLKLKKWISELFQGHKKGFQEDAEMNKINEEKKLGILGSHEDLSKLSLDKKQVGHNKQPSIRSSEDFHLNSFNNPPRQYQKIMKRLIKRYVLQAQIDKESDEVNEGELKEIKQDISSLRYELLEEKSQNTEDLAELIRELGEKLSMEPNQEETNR

In the case of C=C[C@@](C)(O)CC[C@H]1C(=C)C[C@H](O)[C@H]2C(C)(C)CCC[C@]12C [Larixol, (1S,4S,4aR,8aS)-4-[(3S)-3-Hydroxy-3-methylpent-4-enyl]-4a,8,8-trimethyl-3-methylenedecahydronaphthalen-1-ol], the IC50 [1] is reported as 3.9 µM, the “inhibitory activity towards melanin formation in melanocytes” value ([1]; statement in words) is reported as “strong inhibitory activity” and the “Melanin inhibition IC50” value [2] is reported as 0.00011%. For the same molecule, the “Melanin score vs. Control” value [3] was −41%, the “incorporation into commonly used cosmetic formulations” value [4] was “can easily be incorporated” and the “PAI-1 inhibition (screening)” value [5] was “PAI-1 inhibitor”. The TRPC6 antagonism [6] was “TRPC6 antagonists”.
For CC(c1ccccc1)c1ccc(O)cc1O (stereo not shown) [SymWhite ® 377, 4-(1-phenylethyl)1,3-dihydroxybenzene], the “Melanin inhibition IC50” value [2] was 0.000021% and 0.000034%.
Molecule OC[C@H]1O[C@@H](Oc2ccc(O)cc2)[C@H](O)[C@@H](O)[C@@H]1O [beta-Arbutin, reference compound] has an IC50 [1] of 67 µM.
For C=CC(C)(O)CCC1C(=C)CC(OC(C)=O)C2C(C)(C)CCCC12C (stereo not shown) [larixyl acetate], the TRPC6 antagonism [6] is listed as “TRPC6 antagonists”.
For C=CC(C)(CCC1C(=C)CC(OC(C)=O)C2C(C)(C)CCCC12C)OC(C)=O (stereo not shown) [larixyl diacetate], the TRPC6 antagonism [6] is listed as “TRPC6 antagonists”.
For C=C[C@](C)(O)CC[C@H]1C(=C)CC[C@H]2C(C)(C)CCC[C@]12C [manool], the crystallisation in formulation ([4]; formulation with manool, after a few days) was “crystallisation of manool after a few days” and the “incorporation into commonly used cosmetic formulations” value [4] was “difficult to incorporate”.
